≈ marks a conversion by molar mass, not a printed value. Where two headings read alike, the source gives them in different places.
Tests used:
[1] = Water dispersity of triamterene-Gelucire 44/14 melts; assay type: physicochemical; conditions: 30 mg triamterene in melted Gelucire, drug-lipid melt in 900 ml water
Description: To examine the compositions described above, triamterene was used as a model drug. […] In experiment, 30 mg triamterene was dissolved in various amounts of melted Gelucire to make the drug concentration to be 5%, 7.5%, 10% 12.5% 15% and 20%, respectively. Then the drug-lipid melts were dissolved in 900 ml of water. Up to 10% of triamterene in Gelucire, the drug was dispersed in water without precipitates. At higher drug contents (i.e. less lipids), precipitates were observed under a microscope. Drug concentration (in Gelucire) of 10% was selected-for later experiments.

[2] = Size distribution of drug-lipid droplets after dissolution (sub-micron particle sizer); assay type: physicochemical; conditions: triamterene from active-release tablets
Description: The morphologies of triamterene after dissolution in 0.1 M HCl and in water were characterized using a sub-micron particle sizer. The aliquots collected at the end of dissolution were centrifuged under the same conditions as in Example 4 prior to measurement. […] The impregnated powder was suspended in 900 ml PBS buffer at 37° C. with stirring at 100 rpm. […] The aliquots were collected at programmed time intervals, followed by centrifugation at 1000 rpm in an Eppendorf tube for 1 min.

[3] = cited from earlier work

Nc1nc(N)c2nc(-c3ccccc3)c(N)nc2n1 [triamterene]
drug concentration in Gelucire dispersed in water without precipitates [1]: Up to 10% | mean diameter of droplets ([2]; dissolution in water): 277 nm | particles after dissolution ([2]; dissolution medium 0.1 M HCl): no particles were detected | solubility ([3]; pH 1 buffer): 321 µg/mL (≈ 1270 µM) | solubility ([3]; pH 7): 45 µg/mL (≈ 178 µM)
